Measurements reported in patent publication US20240082334A1, “STABILIZED STEVIOL GLYCOSIDE COMPOSITIONS AND USES THEREOF” (CARGILL, INCORPORATED, priority 2017, published 2024).

Assay: Reb M solubility in D2O observed in NMR sample preparation
Type: physicochemical
Conditions: when SCs are not present, compared with SCs present; room temperature
Procedure: A total of four samples were prepared for this study, and they are listed below. Each sample was dissolved fully in water, with or without heat as noted below, flash frozen at −80° C., and then placed on a lyophilizer until dry. The dry powders were subsequently dissolved in D2O at room temperature and analyzed by ^1H NMR and ^13C NMR.

solubility in D2O: much lower
SMILES: C=C1C[C@@]23CC[C@H]4[C@@](C)(CCC[C@@]4(C)C(=O)O[C@@H]4O[C@H](CO)[C@@H](O)[C@H](O[C@@H]5O[C@H](CO)[C@@H](O)[C@H](O)[C@H]5O)[C@H]4O[C@@H]4O[C@H](CO)[C@@H](O)[C@H](O)[C@H]4O)[C@@H]2CC[C@]1(O[C@@H]1O[C@H](CO)[C@@H](O)[C@H](O[C@@H]2O[C@H](CO)[C@@H](O)[C@H](O)[C@H]2O)[C@H]1O[C@@H]1O[C@H](CO)[C@@H](O)[C@H](O)[C@H]1O)C3 [Reb M, Rebaudioside M]
